Data set [1] is described as follows: Liver microsomal stability assay (monkey). The format is in vitro ADME. As to conditions: Monkey liver microsomes 0.5 mg/mL, NADPH and UDPGA, 1 µM compound. How it is done:
(§1) Liver microsomal stability assay
(§2) Microsomes were stored in a -80°C refrigerator, thawed in a 37°C water bath before use, and placed on ice after thawing. All other reagents were purchased from local suppliers.
(§3) In step 1, a reaction system was configured as follows:
(§4) In step 2, 40 µL of 10 mM NADPH solution and 40 µL of 20 mM UDPGA solution were added to the above reaction system, where the final concentrations of NADPH and UDPGA were 1 mM and 2 mM, respectively. 80 µL of ultrapure water was used as negative control to replace the NADPH and UDPGA solutions. The reaction system was pre-incubated for 10 min in a 37°C water bath. […]
(§5) All data calculations were performed using Microsoft Excel software. Peak areas were determined from extracted ion chromatograms and used for calculating the remaining percentage at each time point.
(§6) The remaining percentage was calculated by the following formula: remaining percentage (%) = (peakarearatiotime point/peakarearatio0 min) × 100. […]
(§7) An elimination rate constant (k) was determined through linear fitting of a natural logarithm of the remaining percentage of a parent drug versus time.
(§8) The half-life t1/2 was calculated from the elimination rate constant: t1/2 = 0.693/k.
(§9) The in vitro intrinsic clearance (µL/min/mg) was calculated by the following formula: invitroCLint = kV/N. [formula] […]
(In general: Liver microsomes are a subcellular fraction often used to study metabolism.)

The nature of data set [2]: Liver microsomal stability assay (human). Type of data set: in vitro ADME. As to conditions: Human liver microsomes 0.5 mg/mL, NADPH and UDPGA, 1 µM compound. The method, then:
as §1, §2, §3, §4, §5, §6, §7, §8, §9

Data set [3] is described as follows: Liver microsomal stability assay (rat). Type of data set: in vitro ADME. Particulars: Rat liver microsomes 0.5 mg/mL, NADPH and UDPGA, 1 µM compound. The method, then: as §1, §2, §3, §4, §5, §6, §7, §8, §9
Data set [4] in a line: Liver microsomal stability assay (mouse). Particulars: Mouse liver microsomes 0.5 mg/mL, NADPH and UDPGA, 1 µM compound. Type of data set: in vitro ADME. How it is done: as §1, §2, §3, §4, §5, §6, §7, §8, §9
Data set [5] is described as follows: Liver microsomal stability assay (dog). Type of data set: in vitro ADME. As to conditions: Dog liver microsomes 0.5 mg/mL, NADPH and UDPGA, 1 µM compound. How it is done: as §1, §2, §3, §4, §5, §6, §7, §8, §9
The next data set has as its target T1, IRAK4 (Homo sapiens, UniProt Q9NWZ3).
T1 construct: expressed in transfected cells; host or cells: THP1 (THP1-HIBiT-IRAK4 engineered line)
T1 sequence (Q9NWZ3 1-460): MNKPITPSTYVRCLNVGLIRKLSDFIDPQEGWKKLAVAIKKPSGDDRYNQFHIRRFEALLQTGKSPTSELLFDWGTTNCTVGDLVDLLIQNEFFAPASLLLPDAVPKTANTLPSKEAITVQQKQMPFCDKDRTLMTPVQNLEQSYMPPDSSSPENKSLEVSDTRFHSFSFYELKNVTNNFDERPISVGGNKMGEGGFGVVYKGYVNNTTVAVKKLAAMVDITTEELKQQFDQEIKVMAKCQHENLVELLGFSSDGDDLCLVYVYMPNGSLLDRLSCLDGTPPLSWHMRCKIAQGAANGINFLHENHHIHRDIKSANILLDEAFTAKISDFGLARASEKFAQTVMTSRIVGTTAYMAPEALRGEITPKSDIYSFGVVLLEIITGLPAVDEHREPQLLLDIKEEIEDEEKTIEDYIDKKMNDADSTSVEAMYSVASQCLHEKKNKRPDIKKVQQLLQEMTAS
Put plainly: HiBiT-based intracellular degradation assay of THP1-HIBiT-IRAK4 cells. The format is cell-based. Particulars: half-maximal degradation concentration of IRAK4 protein, 24 h incubation. How it is done:
HiBiT-based intracellular degradation assay of THP1-HIBiT-IRAK4 cells
THP1-HIBiT-IRAK4 cells were cultured in RPMI 1640 medium supplemented with 10% fetal bovine serum (FBS) and 1% penicillin-streptomycin (PS) (37°C and 5% CO2). The THP1-HIBiT-IRAK4 cells were inoculated in a 384-well plate at 5000 cells/40 µL/well. Compound solutions with different concentrations were added at 40 nL/well and incubated for 24 h at 37°C in 5% CO2. HiBiT lysis detection reagents were added to the wells, the plate was incubated for 30 min at room temperature, and luminescence values were read on Envision. [formula]
The DC50 (half-maximal degradation concentration) of each compound was obtained using XLfit software and the following nonlinear fitting equation: Y = bottom + (top−bottom)/(1+10^(∧)((LogDC50−X)×Hillslope)). [formula]
X denotes a log value of the compound concentration.
Y denotes the degradation rate.
Table 1 lists the results of DC50 values of IRAK4 protein degradation. […]
(In general: With HiBiT, luminescence reflects the tagged protein that the partner subunit can reach.)

A short description of data set [6]: In vivo pharmacokinetic study in mice. As to conditions: male CD1 mice. The method, then: In vivo pharmacokinetic study
The pharmacokinetic behaviors of Example 1 and Example 15 in mice were studied using the following experimental protocol to evaluate their pharmacokinetic characteristics.
The mice had free access to food and water before the test.
Approximately 0.03 mL of venous blood was collected from the dorsal metatarsal vein of each mouse separately after 0.033 h, 0.083 h, 0.25 h, 0.5 h, 1 h, 2 h, 4 h, 8 h, and 24 h since intravenous injection. The blood was placed in an EDTA-K2 tube and centrifuged for 5 min at 4000 g and 4°C. The plasma was separated. The concentration of the compound in the plasma was determined through liquid chromatography-tandem mass spectrometry.
Approximately 0.03 mL of venous blood was collected from the dorsal metatarsal vein of each mouse separately after 0.083 h, 0.25 h, 0.5 h, 1 h, 2 h, 4 h, 8 h, and 24 h since oral administration. The blood was placed in an EDTA-K2 tube and centrifuged for 5 min at 4000 g and 4°C. The plasma was separated. The concentration of the compound in the plasma was determined through liquid chromatography-tandem mass spectrometry.

Setting [7] is: mouse, plasma, Intravenous Injection (2 mg/kg).

The structures appear in SMILES notation.

The term half-life denotes the time needed for the level to fall by half in the phase considered. The term microsomal CLint denotes a measure of how fast metabolising enzymes remove a compound, apart from limits set by blood flow. One may read the DC50 as the midpoint of the concentration-degradation curve. What is called clearance is the rate of elimination divided by the concentration. The term AUC(0-t) denotes exposure summed from dosing to a finite time, without extrapolation to infinity. For the compound `CC(C)(O)c1cc2nc(C3CCN(CC4CCN(c5cc6c(cc5F)C(=O)N(C5CCC(=O)NC5=O)C6=O)CC4)CC3)cn2cc1NC(=O)c1cccc(C(F)(F)F)n1` (centres unmarked) [Example 15, N-(2-(1-((1-(2-(2,6-dioxopiperidin-3-yl)-6-fluoro-1,3-dioxoisoindolin-5-yl)piperidin-4-yl)methyl)piperidin-4-yl)-7-(2-hydroxypropan-2-yl)imidazo[1,2-a]pyridin-6-yl)-6-(trifluoromethyl)pyridine-2-carboxamide], the half-life at 1 µM in data set [1] was 3.2 h; in data set [2] it was 6.68 h; in data set [3], 2.23 h; in data set [4] it was 2.39 h; in data set [5], 4.33 h. Besides, the microsomal CLint at 1 µM in data set [1] amounted to 7.22 µL/min/mg; in data set [2] it was 3.46 µL/min/mg; in data set [3] it was 10.4 µL/min/mg; in data set [4] it was 9.67 µL/min/mg; in data set [5] it was 5.34 µL/min/mg. The DC50 on IRAK4 is 1.62 nM. Also, the F in data set [6] (oral bioavailability, Oral Administration (20 mg/kg) vs Intravenous Injection (2 mg/kg)) was 61.7%. The compound further gave a clearance in data set [6] (setting [7]) of 37.2 mL/min/kg. For the same compound, the half-life is 8.05 h in data set [6] (setting [7]) and 8.01 h in data set [6] (mouse, plasma, Oral Administration (20 mg/kg)). For the same compound, the AUC(0-t) in data set [6] (mouse, Intravenous Injection (2 mg/kg), plasma) was 870 ng·h/mL; in data set [6] (mouse, Oral Administration (20 mg/kg), plasma), 4760 ng·h/mL.

These data come from EP4748840A1, “IMIDAZO[1,2-A]PYRIDINE TYPE IRAK DEGRADATION AGENT AND USE THEREOF” (TAINUORUI (TIANJIN) BIOTECHNOLOGY CO., LTD, priority 2023, dated 2025).
